Experimental data: patent US20190231847A1, “TREATMENT OF OCULAR DISEASE” (priority 2016, published 2019)
Where two headings read alike, the source gives them in different places.

Experiments:
[1] = test system: retinal inflammation; assay: Mouse experimental autoimmune uveitis (EAU) model, clinical score from fundus images (TEFI); conditions: for Difference between day 14 p.i. and day 24 p.i. (clinical score): paired Student's t test
Method: The effect of ALM201 on autoimmune uveitis was tested in a mouse model of experimental autoimmune uveitis (EAU).
All mice were maintained in a normal experimental room and exposed to a 12-hour-dark-12-hour light cycle.
An additional 1 mg Bordetella pertussis toxin (Tocris Bioscience, Bristol, UK) was administered intraperitoneally immediately after peptide injection.
Mouse pupils were dilated with 1% atropine sulphate and 2.5% phenylephrine hydrochloride (Chauvin, Essex, UK). The animals were anaesthetised by isofluorane. […] Clinical score of retinal inflammation was accessed using the criteria described previously by us (Xu et al. 2008a).
Ten mice were assigned into each group.
All animals were treated for 10 days from day 14 to 24 p.i.
Group 2: ALM201 0.3 mg/kg in 100 ml, i.p. injection, once daily.
Group 3: ALM201 3 mg/kg in 100 ml, i.p. injection, once daily.
Group 4: Dexamethasone 0.5 mg/kg in 100 ml, p.o. (gavage), once daily.
Group 5: ALM201 0.3 mg/kg in 100 ml, i.p. injection+Dexamethasone 0.5 mg/kg in 100 ml, p.o. (gavage) once daily.
Data (Clinical score and histological score) was expressed as mean±SD. One way ANOVA followed by the Tukey's Multiple Comparison Test was used to detect difference between all treatment groups. In addition, Mann-Whitney U test (two tails) was used to detect the difference between ALM201 or dexamethasone treated group and PBS control group. Paired Student's t test was used to compare clinical score before and after treatment.

[2] = Bodyweight of EAU mice during the course of treatment; conditions: Dexamethasone 0.5 mg/kg p.o.; ALM201 0.3 mg/kg i.p.+Dexamethasone 0.5 mg/kg p.o.
Text: (§4) Bodyweight (BW) of each mouse was monitored daily during the course of treatment.

[3] = mouse, in vivo, ip, 0.3 mg/kg
Text: as §4

[4] = test system: FKBPL; assay: Immunohistochemistry of FKBPL in rat cornea; format: in vivo; conditions: 1 μM ALM201
Method: (§1) Approximately 24 hours after the last treatment the eyes were imaged and clinically scored. The sutured eyes were scored based on vessel density, vessels distance to suture and inflammation. Vessel density was scored out of three, 0=no density, 1=mild, 2=moderate, 3=high. Vessels distance to suture was scored out of four, 0=no reach, 1=small distance, 2=moderate distance, 3=¾ of the way, 4=reached sutures and inflammation was scored out of three, 0=none, 1=minimal, 2=moderate, 3=severe. After clinical scoring the eyes were enucleated, tissue processed, wax embedded and cut into 5 μm sections while taking care to find the sutured area. Sections were stained with haematoxylin and eosin (H&E) to confirm suture location in each eye and adjacent slides were then used for immunohistochemistry to identify CD44+ cells and FKBPL expression as well NFκB and p-IκBα.
(§2) Sections (5 μm) were stained with haematoxylin and eosin (H&E) to confirm suture location in each eye. Adjacent slides were then used for immunohistochemistry to identify, CD44+ cells and FKBPL expression.

[5] = test system: neovascularisation induced by sutures in the cornea; assay: Rat corneal suture model, Example 1 (blinded grading at day 6, images); format: in vivo
Method: To assess the action of ALM201 (SEQ ID NO:3) on the ocular surface, the ability to halt vessel growth was measured. Vessel growth was stimulated through a well-accepted model (Shi et al., 2011) whereby a suture was placed in the central cornea of rat eyes (FIG. 1). We have shown the rat eye is similar anatomically to the human eye (Moore J E, McMullen C B, Mahon G and Adamis A P. The corneal epithelial stem cell. DNA Cell Biol. 2002; 21(5-6):443-51; incorporated herein by reference).
The experimental groups were: • Subconjunctival injection of peptide (5 rats), control group (5 rats) and positive control group (5 rats) • Intrastromal injection of peptide (5 rats), control group (5 rats) and positive control group (5 rats) • Topical application of peptide (5 rats), control group (5 rats) and positive control group (5 rats)
A suture was placed in the central cornea of one eye of each animal while the control eye remained untouched. For the injection groups, peptide was added to the rat's eyes at day 0, day 3, and day 6. For the topical application group, peptide and the positive control was added daily. Each day after suture, rats were monitored for vessel growth and photographed using a Hawk Eye Portable Digital Slit Lamp (Dioptrix, France) and inverted microscope (Nikon's E600FN; Surrey, UK). At a time point when a difference is noted (e.g. day 6) between untreated and peptide treated animals, they received 8 μg/g tail vein injections of an endothelial-specific fluorescein-conjugated lectin (Lycopersicon esculentum; Vector Laboratories, Burlingame, Calif.). Thirty minutes later, the eyes were harvested and fixed with 10% neutral buffered formalin for 24 hours. The corneas were isolated and flat-mounted on glass slides. The fluorescence in the perfused vessels was captured using a Leica SP5 multiphoton microscope (Milton Keynes, UK). Vessel formation within tagged information file format (.tiff) files was measured by visualization with Image J (Rasband, 1997-2014).
At day 6 all rats were graded by an opthalmologist blinded to the treatment. Grading scales were as follows:
Vessel distance from suture: 0=no reach; 1=small distance; 2=moderate distance; 3=¾ of the way; 4=reached sutures;
Vessel density grading: 0=no density; 1=mild; 2=moderate; 3=high Inflammation grading: 0=none; 1=minimal; 2=moderate; 3=severe;

[6] = test system: neovascularisation and inflammation in the injured cornea; assay: ALM201 concentration titration in rat corneal suture model, clinical scoring, Example 4; format: in vivo; conditions: for Vessel density, clinical score compared to PBS control group / Inflammation scoring in comparison to PBS treated group: scored day 7
Method: Each rat was anesthetised and two 10-0 sutures were placed intrastromally into the temporal cornea of the left eye, 1.5 mm from the limbus. The sutures were left in place for the entirety of the experiment. The right eye was kept as a no suture control but given the same treatment as the left eye. Treatment began approx. 24 hours after suture placement and continued once a day for 6 days.
as §1

[7] = test system: retinal inflammation; assay: Mouse EAU model, histopathology (H&E) and histological score; format: in vivo, C57BL/6J mice
Text: On day 24 p.i., fundus images were taken from all experimental mice using the TEFI system. Mice were then sacrificed by CO2 inhalation and eyes were carefully removed. All eyes were fixed in 2.5% (w/v) glutaraldehyde (Agar Scientific Ltd, Cambridge, UK) for 2 days at room temperature. Eyes were embedded in paraffin for standard H&E staining. Histological scores of retinal inflammation were graded using a standard scoring system described previously (Dick A. D., Cheng Y. F., Liversidge J., Forrester J. V., 1994. Immunomodulation of experimental autoimmune uveoretinitis: a model of tolerance induction with retinal antigens. Eye 8 (Pt 1), 52-59, incorporated herein by reference). Retinal sections from at least three different layers from each eye were used for histopathological analysis. The average score from three layers was used as the final pathological score of the eye.

[8] = test system: infiltrated cells and CD68+ cells in sutured cornea; assay: Histological analysis (H&E, CD68+) of sutured rat eyes, Example 3; format: in vivo; conditions: topical ALM201, day 6 after suture and treatment
Method: FIG. 11 Histological analysis by haematoxylin and eosin (H&E) staining showing increased infiltration of cells in control samples (PBS or dexamethasone) compared to treated samples (ALM201, 1 μM or 100 μM) at day 6 after suture and treatment. (A) Haematoxylin and eosin stained sections for each of the experimental groups. White arrows indicate sutures and black arrows show blood vessels (scale bar=500 μm). […] (B) The number of total infiltrated cells and (C) number of CD68+ infiltrated cells in each experimental group was quantitated, with higher numbers of infiltrated cells present in the control group compared to the peptide treated group.
On day 0, sutures where placed into the cornea of rats to induce corneal neovascularisation and inflammation. The eyes were treated for 3 days or 6 days with 16 μl of ALM201 (100 nM and 100 μM) or PBS (vehicle control).
Eyes were enucleated on the 3rd or 6th day one hour after treatment and frozen in gelatine.
Cross sections (10 μm) were taken at the centre of the eye for MSI, adjacent sections were stained with haematoxylin and eosin (H&E).

[9] = test system: cell infiltrate, corneal swelling and blood vessels; assay: H&E staining of sutured rat corneas, Example 4; format: in vivo
Method: as §1, §2

[10] = test system: CD44; assay: Immunohistochemistry staining for CD44 in rat cornea; format: in vivo; conditions: sutured corneas, 1 μM ALM201
Method: as §1, §2

[11] = test system: NFκB; assay: Immunohistochemical analysis of free NFκB expression in rat cornea; format: in vivo; conditions: 1 μM ALM201
Method: as §1
(§3) NFκB and phosphorylated-IκBα antibodies were also used in this experiment to see if ALM201 affected the NFκB pathway. Nuclear factor kappa-light-chain-enhancer of B cells or NFκB is a transcription factor which is involved in several processes including inflammation, B cell development, apoptosis, immune regulation and cell proliferation. There are 5 different NFκB heterodimers in the NFκB family, depending on which heterodimer is activated they can activate or repress the transcription of the above process. […]

[12] = test system: p-IκBα; assay: Immunohistochemistry of p-IκBα expression in rat cornea; format: in vivo; conditions: 1 μM ALM201
Method: as §1, §3

[13] = Dexamethasone 0.5 mg/kg p.o. once daily day 14-24 p.i., 10 mice
[14] = ALM201 0.3 mg/kg i.p. once daily day 14-24 p.i., 10 mice
[15] = ALM201 3 mg/kg i.p. once daily day 14-24 p.i., 10 mice
[16] = subconjunctival injection, 100 nM ALM201, Triamcinolone positive control
[17] = once a day for 6 days, ALM201 100 μM
[18] = ALM201 0.3 mg/kg, after 10 days therapy

Compound: C[C@@H]1C[C@H]2[C@@H]3CCC4=CC(=O)C=C[C@]4(C)[C@@]3(F)[C@@H](O)C[C@]2(C)[C@@]1(O)C(=O)CO [Dexamethasone, reference compound]
- No. of mice with decreased score [1, 13]: 3
- No. of mice with increased score [1, 13]: 3
- No. of mice with increased score (%) [1, 13]: (30%)
- No. of mice with no change [1, 13]: 4
- Average increment in EAU score ([1]; Dexamethasone 0.5 mg/kg, the 3 mice with increased score): 0.80
- Average reduction in EAU score ([1]; Dexamethasone 0.5 mg/kg, the 3 mice with reduced score): 0.69
- Bodyweight during the 10-day treatment period [2]: stable BW

Compound: IRQQPRDPPTETLELEVSPDPAS (listed as Homo Sapiens) [ALM201]
- Bodyweight during the 10-day treatment period [3]: stable BW
- Mice in which progression was prevented or inflammation reduced ([1]; ALM201 0.3 mg/kg): 20%
- Mice with decreased level of EAU progression ([1]; ALM201 0.3 mg/kg): 80%
- No. of mice with decreased score (%) [1, 14]: (10%)
- No. of mice with increased score [1, 14]: 8
- No. of mice with increased score (%) [1, 14]: (80%)
- No. of mice with no change (%) [1, 14]: (10%)
- Difference between day 14 p.i. and day 24 p.i. (clinical score) ([1]; ALM201 0.3 mg/kg i.p., 0.3 mg/kg): did not significant change and No
- Retinal infiltrates in fundus images compared to PBS treated EAU mice ([1]; ALM201 0.3 mg/kg, day 24 p.i.): the number of infiltrates was fewer
- Average increment in clinical score, day 14 to day 24 p.i. ([1]; ALM201 0.3 mg/kg, the 8 mice with increased score): 0.68
- No. of mice with decreased score [1, 15]: 3
- No. of mice with increased score (%) [1, 15]: (40%)
- No. of mice with no change [1, 15]: 3
- Difference between day 14 p.i. and day 24 p.i. (clinical score) ([1]; ALM201 3 mg/kg i.p.): No
- Average decrement in clinical score, day 14 to day 24 p.i. ([1]; ALM201 3 mg/kg, the 3 mice with decreased score): 0.33
- Average increment in clinical score, day 14 to day 24 p.i. ([1]; ALM201 3 mg/kg, the four mice with increased score): 0.82 point
- FKBPL expression in the corneal epithelium and stroma in comparison with PBS treated sutured corneas and normal corneas [4]: increased
- Suture-induced neovascularisation in images ([5]; Hooded Lister Rats, 100 nM ALM201, dexamethasone, vs PBS control): absence of neovascularisation
- Growth of new blood vessels after corneal damage ([5]; after subconjunctival injection or topical application): prevented growth of new blood vessels
- Vessel distance from suture compared to PBS control ([5]; subconjunctival injection day 0, 3, 6, 100 nM ALM201, graded day 6): significant difference of p<0.01
- Vasculature in images (neovascularisation induced by sutures) [5, 16]: normal vasculature
- Vasculature in images (neovascularisation induced by sutures) ([5]; topical treatment, daily): normal vasculature
- Vessel density compared to PBS control ([5]; topical treatment, daily): significantly different
- Anti-inflammatory activity ([5]; when injected): had anti-inflammatory activity when injected
- Inflammation and vessel density scores compared with dexamethasone ([6]; ALM201 100 μM): significant difference in scores
- Vessel density, clinical score compared to PBS control group ([6]; once a day for 6 days, ALM201 1 μM, dexamethasone positive control): significant decrease
- Vessel density, clinical score compared to PBS control group ([6]; once a day for 6 days, ALM201 10 μM): significant decrease
- Inflammation scoring in comparison to PBS treated group ([6]; once a day for 6 days, ALM201 10 μM, dexamethasone positive control): significant difference
- Inflammation scoring in comparison to PBS treated group [6, 17]: significant difference
- Vessel density, clinical score compared to PBS control group [6, 17]: significant decrease
- Vessel distance to sutures, clinical score compared to PBS vehicle control ([6]; once a day for 6 days, scored day 7 after suture, ALM201 1 μM, dexamethasone positive control): significantly different
- Most effective concentrations in preventing angiogenesis and inflammation ([6]; titration 0.01 μM to 100 μM): 1 µM and 10 µM
- Infiltrating cells in retinal histology [7, 18]: Fewer infiltrating cells
- Retinal structure compared to PBS treated mice [7, 18]: retinal structure was better preserved
- Retinal inflammation graded by standard histological scoring system (FIG. 8H) ([7]; ALM201 0.3 and 3 mg/kg): dose-dependently suppressed retinal inflammation
- CD68+ cell infiltrates compared to PBS-treated and dexamethasone-treated animals [8]: reduced
- Neovascularisation in histological analysis compared to controls [8]: decreased neovascularisation
- Total cell infiltrates compared to PBS-treated and dexamethasone-treated animals [8]: reduced total cell infiltrates
- Cell infiltrate, corneal swelling and blood vessels (H&E) ([9]; ALM201 0.01 μM to 10 μM): decreased as the ALM201 concentration was increased
- Corneal swelling (H&E) ([9]; ALM201 100 μM): more corneal swelling was observed
- CD44 expression compared to sutured PBS control [10]: decrease in CD44 expression
- NFκB expression compared to PBS control sutured corneas ([11]; sutured corneas): reduction in NFκB expression in the stroma
- Pattern of NFκB expression ([11]; unsutured corneas): no effect
- p-IκBα expression compared to PBS treated sutured corneas ([12]; sutured corneas): reduced
- p-IκBα expression ([12]; unsutured corneas): no expression of p-IκBα

Compound: C[C@]12C=CC(=O)C=C1CC[C@H]1[C@@H]3C[C@@H](O)[C@](O)(C(=O)CO)[C@@]3(C)C[C@H](O)[C@@]12F [Triamcinolone, reference compound]
- Vasculature in images (neovascularisation induced by sutures) [5, 16]: normal vasculature
